Results published in patent US20220008500A1, “COMPOSITIONS AND METHODS FOR TREATING HEART FAILURE” (The George Washington University, priority 2017, published 2022).
Several values for one entry are separate records, joined by “and”; a condition that tells them apart may be missing. Equal entries are not always repeated.

Key:
[1] = test system: excised Langendorff perfused hearts; assay: Isoproterenol dose response in excised Langendorff perfused hearts (β-adrenergic stimulation); set-up: species or system Sprague-Dawley rats; settings: for Contractility at the highest isoproterenol concentration / RPP at the highest isoproterenol concentration / Relaxation at the highest isoproterenol concentration / CFR at the highest isoproterenol concentration: isoproterenol 1000 nM
Experimental: (§1) At nine weeks of age rats were anesthetized with an IP injection of 0.2 mL Telazol and subject to isoflurane inhalation. Following cessation of pain reflexes, hearts were rapidly excised (n=26) and Langendorff perfused via the aorta at constant pressure (65 mmHg) and temperature (37° C.) with a Krebs-Henseleit solution containing (in mM) 115 NaCl, 3.3 KCl, 2.0 CaCl2, 1.4 MgSO4, 25.0 NaHCO3, 1.0 KH2PO4, 5.0 glucose, and 1.0 lactate. Perfusate was oxygenated with 95% 02-5% CO2. After a stabilization period of 10 minutes, a size 5 balloon (Harvard Apparatus) was inserted into the LV to measure isovolumic LV developed pressure (LVDP). Diastolic pressure was set to 10 mmHg and LVDP was computed as the difference between systolic and diastolic pressures. HR, LVDP, and coronary flow rate (CFR) were measured for at least 15 minutes during sinus rhythm. An isoproterenol (16504, Sigma Aldrich) dose response protocol was then administered using concentrations of 0.01, 0.1, 1, 10, 100, 1000 nM, and HR, LVDP, and CFR were measured at each concentration once function stabilized. After each study, rate pressure product (RPP), an indirect measure of LV work, was calculated as the product of HR and LVDP. Contractility and relaxation were measured as the maximum and minimum values of the first derivative of the LVP waveform, respectively, to assess inotropy and lusitropy.
Measurements in each group were compared using analysis of variance with Tukey post-hoc comparisons (Minitab 17 Statistical Software) to identify significant differences between groups. Myocyte area measurements were analyzed using fully nested ANOVA to account for both number of cells and number of animals. The isoproterenol dose response data was analyzed using a general linear model (GLM) to evaluate the group effect and the isoproterenol dose effect. Tukey post-hoc tests identified pairwise changes between groups at each isoproterenol concentration. Differences were considered significant if p<0.05.

[2] = target: T1, DREADDs in PVN OXT neurons (Homo sapiens, UniProt P20309, A239G/Y149C); assay: Ex vivo cardiac function of excised Langendorff perfused hearts during sinus rhythm; set-up: expressed in transfected cells; host or cells: PVN oxytocin neurons of Sprague-Dawley rats, transduced in vivo with a Cre-dependent (double-floxed inverse ORF) viral vector plus an OXT-promoter Cre vector; species or system Sprague-Dawley rats
Text: (§2) Pressure overload induced LV hypertrophy was initiated in male Sprague-Dawley rats using a minimally invasive trans-ascending aortic constriction (TAC) procedure. Rats at one week of age were aestheticized by hypothermia and underwent TAC surgery. A 0.5 cm incision was made at the level of the chest, the chest was opened and the thymus was retracted to reveal the aorta. A 4-0 silk suture was passed around the ascending aorta, and with a 25-gauge needle temporarily placed adjacent to the aorta, the suture was tied around both the aorta and needle (TAC and TAC+OXT groups). The needle was then removed, leaving the constricting suture around the aorta. Buprenorphine was applied as an analgesic. Successful constriction was confirmed upon examination of the aorta after each animal was sacrificed.
(§3) Additionally, selective activation of DREADDs in PVN OXT neurons decreases both mean arterial pressure and HR in telemetry instrumented conscious unrestrained animals. […] In this system one viral vector expresses Cre recombinase under an OXT promotor. The second vector expresses the excitatory hM3Dq DREADDs22. This is a Cre-dependent vector that has silencing double-floxed inverse open reading frames, which insures expression is only in OXT neurons that selectively express Cre. In each animal, 30-50 nl containing both viral vectors was selectively microinjected into the PVN over a 20 minutes period at 1 week of age.
(§4) TAC+OXT and OXT NORM animals received intraperitoneal (IP) injections of CNO (1 mg/kg) daily, beginning at 5 weeks of age until the animal was sacrificed.
as §1

PVN OXT neurons = assay: Firing of PVN OXT neurons after CNO injection; assay type: in vivo; settings: DREADDs expressed in PVN OXT neurons
Text: as §3

IL-1β = assay: Western blot of LV myocardium, IL-1β; assay type: in vivo, Sprague-Dawley rats; settings: CNO 1 mg/kg IP daily
Experimental: as §4
(§5) Samples of LV myocardium (n=5-6/group) were flash frozen in liquid nitrogen and stored at −80° C. For western blot analysis of protein expression, samples were thawed and homogenized using the Qproteome Mammalian Protein Prep Kit (Qiagen) in tubes containing metallic beads. Samples were then centrifuged at 14,000 g for 20 minutes and protein concentrations were determined by the Pierce BCA Protein Assay (Thermo Scientific). Laemmli buffer (Bio Rad) with 10% 2-mercaptoethanol (Sigma-Aldrich) was added to the samples and samples were heated to 98° C. Equal protein concentration was loaded into wells containing 4-20% Mini-PROTEAN® TGX™ Gels (Bio Rad). The samples were then run at 100V for 1-1.5 hours to separate proteins by electrophoresis.
(§6) After electrophoresis, the samples were transferred to PVDF membranes for 10 min at 25V using the Trans-Blot® Turbo™ Transfer System (Bio Rad). The membranes were blocked with 5% milk for 18 hours. […] Band intensities for collagen III and IL-10 were measured using ImageJ and normalized to the corresponding band intensity for GAPDH.

[3] = target: T1, DREADDs in PVN OXT neurons; assay: Anatomic measurements and histology of hearts after chronic activation of PVN OXT neurons; assay type: in vivo, Sprague-Dawley rats; set-up: expressed in transfected cells; host or cells: PVN oxytocin neurons of Sprague-Dawley rats, transduced in vivo with a Cre-dependent (double-floxed inverse ORF) viral vector plus an OXT-promoter Cre vector
Text: as §2, §3, §4
In a subset of animals, hearts were excised and cannulated via the aorta, flushed of blood, and weighed after clearing fluid from the chambers. The hearts were cut transversely, halfway between the apex and base, and the thickness of the LV free wall and septum were measured. The tissue was then preserved in 10% formalin for histology. Other hearts from each group were cannulated, flushed with high potassium solution, and then formalin-fixed via retrograde perfusion at constant pressure (60 mmHg). The hearts were cut longitudinally and preserved in 10% formalin for histology. All heart specimens were stained (H&E and Trichrome) to quantify cell size and collagen deposition. Average myocyte transverse cross-sectional (CS) area (μm^2) and the amount of fibrosis (μm^2) observed in a histological section were measured using ImageJ for at least three transverse slices from each heart.

[4] = target: T1, DREADDs in PVN OXT neurons
Experimental: In this system one viral vector expresses Cre recombinase under an OXT promotor. The second vector expresses the excitatory hM3Dq DREADDs22. This is a Cre-dependent vector that has silencing double-floxed inverse open reading frames, which insures expression is only in OXT neurons that selectively express Cre. In each animal, 30-50 nl containing both viral vectors was selectively microinjected into the PVN over a 20 minutes period at 1 week of age.
Sprague-Dawley rats at 4 weeks of age that had DREADDS expression in PVN oxytocin neurons were anesthetized (isoflurane) and implanted with a telemetry device (HDX-11, DSI) with the pressure catheter inserted into the descending abdominal aorta to measure blood pressure (BP). The ECG leads of the device were inserted subcutaneously to measure HR. Rats were allowed to recover from this surgery for a week, followed by IP saline injections for 3 days to acclimate the animals to IP injections. […] One injection of one of the three solutions was administered each day on consecutive days.

collagen III = assay: Western blot of LV myocardium, collagen III; assay type: in vivo, Sprague-Dawley rats; settings: CNO 1 mg/kg IP daily
Experimental: as §4, §5, §6

[5] = test system: myocardial ischemia-reperfusion; settings: intra-cerebroventricular administration, rats with daily restraint stress; cited from earlier work
[6] = hearts of TAC rats given CNO 1 mg/kg IP daily
[7] = hearts of rats without TAC (OXT NORM) given CNO daily
[8] = TAC rats with DREADDs, CNO 1 mg/kg IP daily, 8 weeks post-TAC, listed as TAC + OXT
[9] = TAC rats with DREADDs, CNO 1 mg/kg IP daily, 8 weeks post-TAC, listed as TAC+OXT
[10] = rats without TAC (OXT NORM), CNO 1 mg/kg IP daily
[11] = hearts of TAC rats given CNO daily
[12] = acute activation of PVN OXT neurons by CNO, n=4
[13] = awake rats with DREADDs in PVN OXT neurons, CNO 1 mg/kg IP, acute

T1 sequence (P20309 whole entry Y149C/A239G, the tested form may be a part): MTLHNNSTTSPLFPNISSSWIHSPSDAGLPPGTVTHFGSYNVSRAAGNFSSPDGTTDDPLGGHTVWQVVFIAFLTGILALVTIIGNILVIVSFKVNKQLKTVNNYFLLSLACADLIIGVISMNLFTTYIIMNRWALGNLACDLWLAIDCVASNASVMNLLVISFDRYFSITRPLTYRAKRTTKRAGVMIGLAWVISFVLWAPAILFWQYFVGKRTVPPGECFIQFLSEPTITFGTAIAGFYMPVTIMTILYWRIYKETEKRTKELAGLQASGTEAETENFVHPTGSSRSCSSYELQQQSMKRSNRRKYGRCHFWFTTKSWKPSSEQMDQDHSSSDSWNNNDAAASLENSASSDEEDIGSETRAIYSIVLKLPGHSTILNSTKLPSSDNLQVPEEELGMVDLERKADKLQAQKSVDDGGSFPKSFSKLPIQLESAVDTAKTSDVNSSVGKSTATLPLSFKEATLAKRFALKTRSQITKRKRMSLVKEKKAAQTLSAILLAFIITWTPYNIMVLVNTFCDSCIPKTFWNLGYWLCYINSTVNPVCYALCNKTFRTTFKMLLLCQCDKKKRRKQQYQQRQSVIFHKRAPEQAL

CC(C)NCC(O)c1ccc(O)c(O)c1 (stereo not shown) [isoproterenol]
Contractility at the highest isoproterenol concentration ([1]; Control hearts): 7,164±788 mmHg/s | RPP at the highest isoproterenol concentration ([1]; Control hearts): 52,741±14,328 mmHg*bpm | Relaxation at the highest isoproterenol concentration ([1]; Control hearts): −5,402±484 mmHg/s | CFR at the highest isoproterenol concentration ([1]; Control hearts, baseline 13.3±2.4 mL/min): 25.3 ± 3.7 mL/min | CFR, average for all isoproterenol concentrations ([1]; untreated TAC hearts): 8.4 ± 0.8 mL/min | Maximum contractility rate in the isoproterenol protocol ([1]; untreated TAC hearts): 2,322±364 mmHg/s | Minimum relaxation rate in the isoproterenol protocol ([1]; untreated TAC hearts): −2,023±361 mmHg/s | RPP at the highest isoproterenol concentration ([1]; untreated TAC hearts): 21,787±3998 mmHg*bpm

C[N+]1([O-])CCN(C2=Nc3cc(Cl)ccc3Nc3ccccc32)CC1 [CNO, clozapine N-oxide]
LV contractility (maximum of first derivative of LVP) [2, 6]: 3,124±383 mmHg/s | LV developed pressure (LVDP) [2, 6]: 126±14 mmHg | LV relaxation (minimum of first derivative of LVP) [2, 6]: −2,203±231 mmHg/s | Rate pressure product (RPP) [2, 6]: 26,874±4,036 mmHg*bpm | Coronary flow rate (CFR) ([2]; hearts of TAC rats given CNO 1 mg/kg IP daily, baseline (no isoproterenol), listed as TAC+OXT): 13.8 ± 2.9 mL/min and 14 ± 2.9 mL/min | Coronary flow rate (CFR) [2, 7]: 16 ± 1.9 mL/min | LV contractility (maximum of first derivative of LVP) [2, 7]: 4,631±931 mmHg/s | LV developed pressure (LVDP) [2, 7]: 127±16 mmHg | LV relaxation (minimum of first derivative of LVP) [2, 7]: −2,926±397 mmHg/s | Rate pressure product (RPP) [2, 7]: 26,978±2,274 mmHg*bpm | Firing of PVN OXT neurons (PVN OXT neurons): increases the firing of PVN OXT neurons for at least one hour | IL-1β expression (band intensity normalized to GAPDH) (IL-1β; TAC rats with DREADDs): 0.50±0.2 change from Control | IL-1β expression (band intensity normalized to GAPDH) (IL-1β; rats without TAC (OXT NORM)): 0.21±0.14 change from Control | Myocyte area (transverse cross-sectional area) ([3]; TAC rats with DREADDs, CNO 1 mg/kg IP daily from 5 weeks of age, 8 weeks post-TAC, listed as TAC + OXT): 584 ± 51^+ μm^2 | Myocyte area (transverse cross-sectional area) ([3]; TAC rats with DREADDs, CNO 1 mg/kg IP daily from 5 weeks of age, 8 weeks post-TAC, listed as TAC+OXT): 601±23 μm^2 | Body weight ([3]; TAC rats with DREADDs, CNO 1 mg/kg IP daily, 8 weeks post-TAC): 298 ± 17^ g | Fibrosis [3, 8]: 2407 ± 723^+ μm^2 | Heart weight [3, 8]: 1.75 ± 0.21 g | LV wall thickness (LV free wall) [3, 8]: 5.53 ± 0.34 mm | Septum thickness [3, 8]: 3.99 ± 0.14 mm | Fibrosis [3, 9]: 2407±723 μm^2 | Heart weight [3, 9]: 1.74 ± 0.2 g | LV wall thickness (LV free wall) [3, 9]: 5.22±0.3 mm | Septum thickness [3, 9]: 3.9±0.2 mm | Myocyte area (transverse cross-sectional area) ([3]; rats without TAC (OXT NORM) with DREADDs, CNO 1 mg/kg IP daily): 368±20 μm^2 and 365 ± 90 μm^2 | Body weight [3, 10]: 357 ± 24 g | Fibrosis [3, 10]: 918±112 μm^2 | Heart weight [3, 10]: 2.19 ± 0.2 g and 2.19 ± 0.17 g | LV wall thickness (LV free wall) [3, 10]: 3.69±0.1 mm and 3.69 ± 0.10 mm | Septum thickness [3, 10]: 3.18±0.1 mm and 3.18 ± 0.12 mm | HR response to increasing isoproterenol concentration ([1]; hearts of TAC rats given CNO daily, compared with Control and TAC hearts): greatest increase in HR | CFR at the highest isoproterenol concentration [1, 11]: 15 ± 1.9 mL/min | Contractility at the highest isoproterenol concentration [1, 11]: 3,936±589 mmHg/s | RPP at the highest isoproterenol concentration [1, 11]: 38,017±4,303 mmHg*bpm | Relaxation at the highest isoproterenol concentration [1, 11]: −3,258±495 mmHg/s | Effect on BP (figure legend) [4, 12]: significantly reduced BP | Effect on HR (figure legend) [4, 12]: significantly reduced HR | Average reduction of HR [4, 13]: 56 bpm | Average reduction of blood pressure [4, 13]: 13 mmHg | Blood pressure after CNO ([4]; awake rats with DREADDs, CNO 1 mg/kg IP, before: 105.8±1.9 mmHg): 93.4±1.5 mmHg | HR after CNO ([4]; awake rats with DREADDs, CNO 1 mg/kg IP, before: 475.4±15.9 bpm): 419±12.4 bpm | Collagen III expression (band intensity normalized to GAPDH) (collagen III; TAC rats with DREADDs): 1.95±0.7 times Control | Collagen III expression (band intensity normalized to GAPDH) (collagen III; rats without TAC (OXT NORM)): 1.31±0.5 change from Control

CC[C@H](C)[C@@H]1NC(=O)[C@H](Cc2ccc(O)cc2)NC(=O)[C@@H](N)CSSC[C@@H](C(=O)N2CCC[C@H]2C(=O)N[C@@H](CC(C)C)C(=O)NCC(N)=O)NC(=O)[C@H](CC(N)=O)NC(=O)[C@H](CCC(N)=O)NC1=O [oxytocin]
Cardiac injury following ischemia reperfusion [5]: reduced the cardiac injury
